The target in assay [1] is T1, Z. mobilis Tgt ("wild type" Tgt = Tgt(Tyr106Phe)) (Zymomonas mobilis, UniProt P28720, Y106F).
T1 construct: recombinant from pET9d-ZM-Y106F in E. coli BL21(DE3)/pLysS, purified; homodimer; all variants including "wild type" carry Tyr106Phe
Description: inhibition of [[…]-3H]-guanine incorporation into tRNA(Tyr). In kind it is biochemical. Particulars: read-out: K ic.
Target sequence in this assay (P28720 2-386 Y106F/C158V): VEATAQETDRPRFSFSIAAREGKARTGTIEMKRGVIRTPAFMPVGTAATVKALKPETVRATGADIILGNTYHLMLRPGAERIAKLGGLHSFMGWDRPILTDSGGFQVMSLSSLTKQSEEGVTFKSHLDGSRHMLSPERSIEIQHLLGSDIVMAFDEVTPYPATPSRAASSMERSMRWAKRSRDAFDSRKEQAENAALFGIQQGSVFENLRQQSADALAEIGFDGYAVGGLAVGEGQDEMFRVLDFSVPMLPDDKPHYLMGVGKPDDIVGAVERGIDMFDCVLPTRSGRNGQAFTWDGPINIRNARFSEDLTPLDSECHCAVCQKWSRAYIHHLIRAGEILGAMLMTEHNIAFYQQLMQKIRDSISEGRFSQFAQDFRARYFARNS

The target in assay [2] is T1, Z. mobilis Tgt ("wild type" Tgt = Tgt(Tyr106Phe)). Described as above. The note with it: read-out: K ic. In kind it is biochemical. The source holds these as a separate data set.
Target sequence in this assay (P28720 2-386 Y106F): as the sequence (P28720 2-386 Y106F/C158V) above, with V157C counted along it
Assay [3] deals with T2, Z. mobilis Tgt ("wild type" Tgt = Tgt(Tyr106Phe)) (Zymomonas mobilis, UniProt P28720, Y106F/C158V/A232S/V233G).
T2 construct: recombinant from pET9d-ZM-Y106F in E. coli BL21(DE3)/pLysS, purified; homodimer; all variants including "wild type" carry Tyr106Phe
T2 sequence (P28720 2-386 Y106F/C158V/A232S/V233G): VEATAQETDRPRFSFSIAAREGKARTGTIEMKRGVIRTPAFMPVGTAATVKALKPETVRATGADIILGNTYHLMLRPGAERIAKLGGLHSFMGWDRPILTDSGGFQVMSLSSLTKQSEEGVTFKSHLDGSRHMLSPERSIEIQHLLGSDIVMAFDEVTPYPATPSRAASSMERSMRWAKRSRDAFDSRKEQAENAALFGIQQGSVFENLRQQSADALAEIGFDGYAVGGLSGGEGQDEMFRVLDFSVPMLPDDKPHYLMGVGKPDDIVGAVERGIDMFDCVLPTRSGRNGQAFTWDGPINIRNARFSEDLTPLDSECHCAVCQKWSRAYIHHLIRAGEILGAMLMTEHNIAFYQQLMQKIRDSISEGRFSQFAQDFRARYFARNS
Description: X-ray crystal structure of complex. The class given is binding.

The target in assay [4] is T3, Z. mobilis Tgt ("wild type" Tgt = Tgt(Tyr106Phe)) (Zymomonas mobilis, UniProt P28720, C158V/V233G/Y106F).
T3 construct: recombinant from pET9d-ZM-Y106F in E. coli BL21(DE3)/pLysS, purified; homodimer; all variants including "wild type" carry Tyr106Phe
T3 sequence (P28720 2-386 Y106F/C158V/V233G): T2 sequence (P28720 2-386 Y106F/C158V/A232S/V233G) with S231A
Description: inhibition of [[…]-3H]-guanine incorporation into tRNA(Tyr). In kind it is biochemical. Particulars: read-out: K ic.

Assay [5] deals with T4, Z. mobilis Tgt ("wild type" Tgt = Tgt(Tyr106Phe)) (Zymomonas mobilis, UniProt P28720, V233G/Y106F).
T4 construct: recombinant from pET9d-ZM-Y106F in E. coli BL21(DE3)/pLysS, purified; homodimer; all variants including "wild type" carry Tyr106Phe
T4 sequence (P28720 2-386 Y106F/V233G): T2 sequence (P28720 2-386 Y106F/C158V/A232S/V233G) with V157C, S231A
The assay is described as above. In kind it is biochemical. The note with it: read-out: K ic.

The source of these data is PMC3660597, “Investigation of Specificity Determinants in Bacterial tRNA-Guanine Transglycosylase Reveals Queuine, the Substrate of Its Eucaryotic Counterpart, as Inhibitor” (PLoS ONE, 2013).

Structures are written as SMILES. Numbering of substitutions follows the chain as printed. Read-outs that look alike come from different tables or passages of the source.

`Nc1nc2[nH]cc(CN[C@H]3C=C[C@H](O)[C@@H]3O)c2c(=O)[nH]1` [queuine, 7-(((4,5-cis-dihydroxy-2-cyclopenten-1-yl)amino)methyl)-7-deazaguanine]: the Ki was 3.8 ± 0.5 µM in assay [1], 3.8 ± 0.6 µM in assay [2], 8.9 ± 1.2 µM in assay [4] and 3.1 ± 0.2 µM in assay [5]. In addition, in assay [3] (cocrystallisation), the “X-ray crystal structure of complex” value was “in complex with preQ1 and in complex with queuine”.
As to `NCc1c[nH]c2nc(N)[nH]c(=O)c12` [preQ1, 7-aminomethyl-7-deazaguanine], the “X-ray crystal structure of complex” value in assay [3] (soaking) is “in complex with preQ1 and in complex with queuine”.
